Data as given in patent US11992494B2, “Cyclopentathiophene carboxamide derivatives as platelet activating factor receptor antagonists” (Boehringer Ingelheim International GmbH, priority 2021, dated 2024).
pIC50: −log10 of the molar value. Like-named read-outs stand apart in the source and are kept apart here.

Legend:
PAF = PAF (Homo sapiens, UniProt P25105); conditions: see EP0480455A1, cited from earlier work
[1] = Evaluation of chemical stability (solution state stress conditions, HPLC); type: physicochemical
Procedure: Evaluation of Chemical Stability Within solution state stability studies the influence of temperature, pH and light exposure are analyzed. Stress conditions are applied in order to get a fast signal of possible chemical decomposition via hydrolytical, oxidative or photodegradative pathways. […] The stressed/stored samples are analysed by a stability indicative chiral or achiral HPLC-method, as appropriate. Degradation studies are used to simulate chemical stability of compounds in the acidic part of the gastrointestinal tract. The compounds of the invention show high chemical stability in acidic aqueous media (pH value ca. 1.2) what makes their application as medical drugs to treat human diseases less restricted and troublesome. […] Compound is dissolved in an HPLC vial in a mixture of acetonitrile/0.1 M aqueous HCl (ratio: 2:3; pH ca. 1.2) to get a concentration of approximately 0.25 mg/ml. The vial is then transferred into an HPLC autosampler system and maintained at the desired temperature of, e.g., 40° C. A first sample is taken and injected immediately into a standard HPLC system with a UV DAD detector. A further sample is injected after 24 hours. Amount of degraded compound is measured by determining the recovery rate of compound [%] for the 24 h injection using an HPLC standard gradient method. Therefore the peak area of the main peak for the first injection (AUt0) is determined and set as 100%. Peak area of the main peak is determined also for the 24 h injection (AU24 h) and expressed as fraction of (AU24 h)/(AUt0)[%]. Analogously, the amount of degraded compound is determined for stability examinations running for more than 1 day, e.g., for 3 days.

PAFR = PAFR (Homo sapiens, UniProt P25105); assay: cellular HTRF IP1 assay: inhibition of PAFR activation by PAF C-16 ligand (endpoint assay); type: cell-based; set-up: expressed in transfected cells; host or cells: HEK293
Procedure, shortened: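 HEK293 cells overexpressing human PAFR were preincubated with compound (1% DMSO) 90 min at 37°C, then challenged with 11 nM PAF C-16 for 60 min in HBSS/20 mM HEPES pH 7.4/50 mM LiCl/0.1% BSA. IP1 accumulation read by HTRF (665/620 nm emission).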

[2] = 40° C., ACN/0.1M aq. HCl (pH ca. 1.2)
[3] = HEK293 cells overexpressing human PAFR, PAF ligand 11 nM, Table 2
[4] = dedicated head-to-head comparison assay run: cyclopropylene vs di-methyl / cyclobutylene analogues

PAFR, sequence (P25105 whole entry): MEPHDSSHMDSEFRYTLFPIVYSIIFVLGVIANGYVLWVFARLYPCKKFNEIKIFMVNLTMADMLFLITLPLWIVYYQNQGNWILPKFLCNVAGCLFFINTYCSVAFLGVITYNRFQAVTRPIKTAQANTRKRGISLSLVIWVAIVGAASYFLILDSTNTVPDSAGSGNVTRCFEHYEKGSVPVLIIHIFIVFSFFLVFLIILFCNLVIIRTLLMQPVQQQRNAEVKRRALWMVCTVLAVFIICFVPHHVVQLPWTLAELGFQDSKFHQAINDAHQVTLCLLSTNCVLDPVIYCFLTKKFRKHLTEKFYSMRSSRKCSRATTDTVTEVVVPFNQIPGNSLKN
PAF, sequence (P25105 whole entry): as above

| Compound | PAF-antagonistic activity relative to racemate (PAF) | PAF-antagonistic activity relative to racemate (PAF; listed as Compound B S-configured enantiomer) | Amount of degradation after 3 d at 40° C. in ACN/0.1M aq. HCl [1, 2] | pIC50 (PAFR; [3]) | pIC50 (PAFR; [4]) | Amount of degradation after 3 d at 40° C. in ACN/0.1M aq. HCl ([1]; 0.25 mg/ml, pH 1.2) |
| --- | --- | --- | --- | --- | --- | --- |
| Cc1nnc2n1-c1sc(CCC(=O)N3CCOCC3)cc1C(c1ccccc1Cl)=NC2C (stereo not drawn) [example 1 of EP0368175A1 S-configured isomer] | S-configured isomer with several times | several times stronger |  |  |  |  |
| Cc1nnc2n1-c1sc3c(c1C(c1ccccc1Cl)=NC21CC1)C[C@H](C(=O)N1CCOCC1)C3 [Example 114] |  |  | 4% | 8.14 | 8.18 |  |
| CCCN(CCC)C(=O)[C@@H]1Cc2sc3c(c2C1)C(c1ccccc1Cl)=NC1(CC1)c1nnc(C)n1-3 [Example 104, (13′S)-9′-(2-chlorophenyl)-3′-methyl-N, N-dipropyl-16′-thia-2′,4′,5′,8′-tetraazaspiro[cyclopropane-1,7′-tetracyclo[8.6.0.0^2,6.0^11,15]hexadecane]-1′(10′),3′,5′,8′,11′(15′)-pentaene-13′-carboxamide] |  |  |  | 9.05 |  | 1.5% |
| Cc1nnc2n1-c1sc3c(c1C(c1ccccc1Cl)=NC21CC1)C[C@H](C(=O)N[C@@H]1CCC(F)(F)C1)C3 [Example 124] |  |  | 2.5% | 8.62 | 8.59 |  |
